Patent publication US9493438B2, “4,4-difluoro-piperidine-compounds” (ROTTAPHARM BIOTECH S.R.L., priority 2012, dated 2016)

How the values were obtained:
human OX1 receptors = biological target: T1, human OX1 receptors (Homo sapiens, UniProt O43613); test: antagonistic activity against human OX1 receptor, [Ca2+]i fluorimetry in transfected CHO cells; assay type: cell-based; settings: CHO cells transfected with human recombinant OX1; activated with orexin-A 3 nM; pKb = co-logarithm of apparent dissociation constant (modified Cheng Prusoff)
T1 construct: expressed in transfected cells; host or cells: CHO cells
T1 sequence (O43613 1-425): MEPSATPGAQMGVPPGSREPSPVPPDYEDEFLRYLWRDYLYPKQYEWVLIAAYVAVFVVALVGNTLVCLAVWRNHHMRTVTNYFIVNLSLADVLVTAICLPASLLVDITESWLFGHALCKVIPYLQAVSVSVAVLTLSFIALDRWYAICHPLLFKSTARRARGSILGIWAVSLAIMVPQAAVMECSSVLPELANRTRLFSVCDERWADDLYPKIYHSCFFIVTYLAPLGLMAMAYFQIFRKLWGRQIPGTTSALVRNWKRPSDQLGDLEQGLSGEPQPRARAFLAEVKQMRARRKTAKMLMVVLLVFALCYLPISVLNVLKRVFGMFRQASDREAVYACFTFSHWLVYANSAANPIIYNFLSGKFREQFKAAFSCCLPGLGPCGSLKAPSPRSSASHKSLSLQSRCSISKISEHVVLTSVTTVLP
Procedure: (§1) Thus the plate was loaded with the calcium dye (Fluo-4NW/probenecid in HBSS, Hepes 20 mM, pH 7.4; Invitrogen) at 37° C. for 60 min. Afterward the temperature was equilibrated at 22° C. for 15 min and the [Ca2+]i measured directly on the plate by using a fluorescent plate reader (CeliLux Perkin Elmer).
(§2) Invention compounds were dissolved in DMSO, diluted in HBSS (DMSO, 0.3% final) and added to the wells. After 5 min CHO cells were activated with orexin-A, 3 nM while HEK-293 cells were activated with orexin-B, 10 nM. […] The antagonistic activity has been expressed as pKb (co-logarithm of the apparent dissociation constant calculated by using the modified Cheng Prusoff equation). The results are expressed as percent of control specific […] response ((measured specific response/control specific agonist response)×100) obtained in the presence of the test compounds.
(§3) The IC50 values (concentration causing a half-maximal inhibition of the control specific agonist response) were determinated by non-linear regression analysis of the concentration curves generated with mean replicate values using hill equation curve fitting. The IC50 values are obtained by the arithmetical mean of at least two experiments.

human OX2 receptors = biological target: T2, human OX2 receptors (Homo sapiens, UniProt O43614); test: antagonistic activity against human OX2 receptor, [Ca2+]i fluorimetry in transfected HEK-293 cells; assay type: cell-based; settings: read-out: PKb OX2 (converted)
T2 construct: expressed in transfected cells; host or cells: HEK-293 cells
T2 sequence (O43614 1-444): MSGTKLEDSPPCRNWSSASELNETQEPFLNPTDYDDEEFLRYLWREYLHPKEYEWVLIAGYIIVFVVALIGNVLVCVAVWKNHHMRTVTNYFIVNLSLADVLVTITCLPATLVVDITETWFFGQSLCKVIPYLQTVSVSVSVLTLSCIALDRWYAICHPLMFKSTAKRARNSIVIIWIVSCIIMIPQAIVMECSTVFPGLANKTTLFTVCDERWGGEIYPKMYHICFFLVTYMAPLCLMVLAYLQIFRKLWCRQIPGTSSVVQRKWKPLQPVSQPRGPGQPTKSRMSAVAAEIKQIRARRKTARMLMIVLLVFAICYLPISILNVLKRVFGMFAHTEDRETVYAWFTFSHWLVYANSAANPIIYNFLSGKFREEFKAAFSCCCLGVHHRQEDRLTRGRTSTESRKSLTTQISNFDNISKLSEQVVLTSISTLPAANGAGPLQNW
Procedure: as §1, §2, §3

Kb (human OX1 receptors) [nM]	Kb (human OX2 receptors) [nM]	Compound
1	10000	O=C(c1nccc2ccccc12)N1CCC(F)(F)CC1CNc1ccc(Cl)cn1 (single isomer, unassigned; isomer b) [Compound 24, (2-(((5-chloropyridin-2-yl)amino)methyl)-4,4-difluoropiperidin-1-yl)(isoquinolin-1-yl)methanone (isomer B)]
3.16	126	Cc1ccc(-c2ccccc2)c(C(=O)N2CCC(F)(F)CC2CNc2ccc(C(F)(F)F)cn2)n1 (single isomer, unassigned; isomer b) [Compound 38, (4,4-difluoro-2-(((5-(trifluoromethyl)pyridin-2-yl)amino)methyl)piperidin-1-yl)(6-methyl-3-phenylpyridin-2-yl)methanone (isomer B)]
15.8	10000	Cc1ccc(OCC2CC2)c(C(=O)N2CCC(F)(F)C[C@H]2CNc2ccc(C(F)(F)F)cn2)n1 [Compound 46, (S)(3-(cyclopropylmethoxy)-6-methylpyridin-2-yl)(4,4-difluoro-2-(((5-(trifluoromethyl)pyridin-2-yl)amino)methyl)piperidin-1-yl)methanone]
